Results taken from patent US20240400553A1, “AMINE BASED MATRIPTASE 2 INHIBITORS AND USES THEREOF” (Disc Medicine, Inc., priority 2023, published 2024).
Like-named read-outs stand apart in the source and are kept apart here.

Molecular target: T1, Human Recombinant Matriptase 2 (Homo sapiens, UniProt Q8IU80)
T1 construct: made in house
T1 sequence (Q8IU80 1-811): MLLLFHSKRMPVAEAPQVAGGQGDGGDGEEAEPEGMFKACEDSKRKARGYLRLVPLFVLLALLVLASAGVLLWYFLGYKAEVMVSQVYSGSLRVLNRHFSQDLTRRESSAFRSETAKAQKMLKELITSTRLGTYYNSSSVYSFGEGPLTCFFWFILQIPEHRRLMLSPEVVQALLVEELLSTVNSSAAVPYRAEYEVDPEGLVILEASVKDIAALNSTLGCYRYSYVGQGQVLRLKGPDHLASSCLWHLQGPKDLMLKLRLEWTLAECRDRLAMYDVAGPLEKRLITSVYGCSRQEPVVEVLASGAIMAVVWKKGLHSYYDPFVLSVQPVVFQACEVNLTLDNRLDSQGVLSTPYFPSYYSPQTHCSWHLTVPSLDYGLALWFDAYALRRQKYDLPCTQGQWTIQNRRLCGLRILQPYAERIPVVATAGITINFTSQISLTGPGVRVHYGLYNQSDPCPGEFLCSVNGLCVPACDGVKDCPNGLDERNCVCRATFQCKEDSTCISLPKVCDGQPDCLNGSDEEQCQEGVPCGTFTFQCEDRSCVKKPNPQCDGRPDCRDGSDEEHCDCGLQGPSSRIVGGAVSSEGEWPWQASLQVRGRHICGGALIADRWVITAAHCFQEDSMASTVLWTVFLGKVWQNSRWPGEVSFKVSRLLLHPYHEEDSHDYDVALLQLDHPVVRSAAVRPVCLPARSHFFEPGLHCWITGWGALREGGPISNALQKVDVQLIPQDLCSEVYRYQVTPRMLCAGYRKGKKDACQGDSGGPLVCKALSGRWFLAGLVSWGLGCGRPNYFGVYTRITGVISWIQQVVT
Experiment: Matriptase 2 inhibition, fluorescence based assay (Method I)
Type: biochemical
Details: Table A, read-out: Mat-2 Ki
Method in brief: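 In-house recombinant enzyme (3.5 nM), preincubated 30 min with compound, then Boc-Gln-Ala-Arg-AMC substrate (62 μM) in 50 mM Tris pH 7.5, 150 mM NaCl, 0.01% gelatin, 1% DMSO, 25 °C. Fluorescence (Ex 360/Em 480 nm) read 60 min after substrate; IC50 from variable-slope sigmoidal fit of % inhibition.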

[1] = Ki of Matriptase-2 given as class symbols

| Compound | Ki (Ki of Matriptase-2) [nM] | Ki [1] [nM] |
| --- | --- | --- |
| Cn1cc(CS(=O)(=O)Nc2cc(Cn3c(C(=O)O)cc4ccc(CN)nc43)c3ccccc3c2)cn1 [Compound 244, 6-(aminomethyl)-1-({3-[(1-methyl-1H-pyrazol-4-yl)methanesulfonamido]-naphthalen-1-yl}methyl)-1H-pyrrolo[2,3-b]pyr-idine-2-carboxylic acid] | – | 100 to 500 |
| CN1CCC(CNC(=O)c2cc3ccc(CN)nc3n2Cc2cc(NS(=O)(=O)Cc3ccccc3)cc3ccccc23)CC1 [Compound 12, 6-(aminomethyl)-N-[(1-methylpiperidin-4-yl)-methyl]-1-{[3-(phenyl-methanesulfonamido)-naphthalen-1-yl]meth-yl}-1H-pyrrolo[2,3-b]-pyridine-2-carboxamide] | ≤ 100 | – |
| COCCN1CCCC(COC(=O)c2cc3ccc(CN)nc3n2Cc2cc(NS(=O)(=O)Cc3c(C)cccc3C)cc3ccccc23)C1 (racemic) [Compound 193, [1-(2-methoxyethyl)-piperidin-3-yl]methyl 6-(aminomethyl)-1-({3-[(2,6-dimethylphenyl)-methanesulfonamido]-naphthalen-1-yl}meth-yl)-1H-pyrrolo[2,3-b]-pyridine-2-carboxylate] | ≤ 100 | – |
| NCc1ccc2cc(C(=O)OCCCCN3CCOCC3)n(Cc3cc(NS(=O)(=O)Cc4ccccc4)cc4ccccc34)c2n1 [Compound 7, 4-morpholinobutyl 6-(aminomethyl)-1-((3-((phenylmethyl)sulfonamido)naphthalen-1-yl)methyl)-1H-pyrrolo[2,3-b]pyridine-2-carboxylate] | ≤ 100 | – |
| N#Cc1cccc(CS(=O)(=O)Nc2cc(Cn3c(C(=O)O)cc4ccc(CN)nc43)c3ccccc3c2)c1 [Compound 218, 6-(aminomethyl)-1-({3-[(3-cyanophenyl)meth-anesulfonamido]naph-thalen-1-yl}methyl)-1H-pyrrolo[2,3-b]pyridine-2-carboxylic acid] | – | 100 to 500 |
| NCc1ccc2cc(C(=O)O)n(Cc3cc(NS(=O)(=O)Cc4ccsc4)cc4ccccc34)c2n1 [Compound 4] | ≤ 100 | – |
| CN1CCC(COC(=O)c2cc3ccc(CN)nc3n2Cc2cc(NS(=O)(=O)CC[C@@H]3CCCN3)cc3ccccc23)CC1 [Compound 2] | 500 to 3000 | – |
| Cc1cccc(C)c1CS(=O)(=O)Nc1cc(Cn2c(C(=O)OC[C@H]3COCCN3)cc3ccc(CN)nc32)c2ccccc2c1 [Compound 189, [(3R)-morpholin-3-yl]-methyl 6-(aminomethyl)-1-({3-[(2,6-dimethyl-phenyl)methanesulfon-amido]naphthalen-1-yl}-methyl)-1H-pyrrolo[2,3-b]pyridine-2-carboxylate] | ≤ 100 | – |
| NCc1ccc2cc(C(=O)OCCOCCN3CCCCC3)n(Cc3cc(NS(=O)(=O)Cc4ccccc4)cc4ccccc34)c2n1 [Compound 56, 2-[2-(piperidin-1-yl)-ethoxy]ethyl 6-(amino-methyl)-1-{[3-(phenyl-methanesulfonamido)-naphthalen-1-yl]methyl}-1H-pyrrolo[2,3-b]pyr-idine-2-carboxylate] | ≤ 100 | – |
| CC(C)N1CCC(OC(=O)c2cc3ccc(CN)nc3n2Cc2cc(NS(=O)(=O)Cc3ccccc3)cc3ccccc23)CC1 [Compound 16, 1-(propan-2-yl)piperidin-4-yl 6-(aminomethyl)-1-{[3-(phenylmethane-sulfonamido)naphthalen-1-yl]methyl}-1H-pyr-rolo[2,3-b]pyridine-2-carboxylate] | ≤ 100 | – |
| NCc1ccc2cc(C(=O)O)n(Cc3cc(NS(=O)(=O)[C@H]4CCOC4)cc4ccccc34)c2n1 (racemic) [Compound 273, rac-6-(aminomethyl)-1-({3-[(3R)-oxolane-3-sulfonamido]naphthalen-1-yl}methyl)-1H-pyr-rolo[2,3-b]pyridine-2-carboxylic acid] | – | 500 to 3000 |
| NCc1ccc2cc(-c3nnn[nH]3)n(Cc3cc(NS(=O)(=O)Cc4ccccc4)cc4ccccc34)c2n1 [Compound 366, N-(4-((6-(aminomethyl)-2-(1H-tetrazol-5-yl)-1H-pyrrolo[2,3-b]pyridin-1-yl)methyl)naphthalen-2-yl)-1-phenylmethanesulfonamide] | – | ≤ 100 |
| NCc1ccc2cc(C(=O)NCCN3CCOCC3)n(Cc3cc(NS(=O)(=O)Cc4ccccc4)cc4ccccc34)c2n1 [Compound 60, 6-(aminomethyl)-N-[2-(morpholin-4-yl)ethyl]-1-{[3-(phenylmethane-sulfonamido)naphthalen-1-yl]methyl}-1H-pyr-rolo[2,3-b]pyridine-2-carboxamide] | ≤ 100 | – |
| CN1CCC[C@H](COC(=O)c2cc3ccc(CN)nc3n2Cc2cc(NS(=O)(=O)Cc3ccccc3)cc3ccccc23)C1 (racemic) [Compound 24, (1-methylpiperidin-3-yl)methyl 6-(amino-methyl)-1-{[3-(phenyl-methanesulfonamido)-naphthalen-1-yl]methyl}-1H-pyrrolo[2,3-b]pyr-idine-2-carboxylate] | ≤ 100 | – |

The remaining lines, values ahead:

| Ki (Ki of Matriptase-2) [nM] | Ki [1] [nM] | Compound |
| --- | --- | --- |
| ≤ 100 | – | NCc1ccc2cc(C(=O)NCCS(N)(=O)=O)n(Cc3cc(NS(=O)(=O)Cc4ccccc4)cc4ccccc34)c2n1 [Compound 78, 6-(aminomethyl)-1-{[3-(phenylmethanesulfon-amido)naphthalen-1-yl]-methyl}-N-(2-sulfamoyl-ethyl)-1H-pyrrolo[2,3-b]pyridine-2-carboxamide] |
| ≤ 100 | – | CN1CCN(C)[C@@H](COC(=O)c2cc3ccc(CN)nc3n2Cc2cc(NS(=O)(=O)Cc3ccccc3)cc3ccccc23)C1 (racemic) [Compound 51, (1,4-dimethylpiperazin-2-yl)methyl 6-(amino-methyl)-1-{[3-(phenyl-methanesulfonamido)-naphthalen-1-yl]methyl}-1H-pyrrolo[2,3-b]pyr-idine-2-carboxylate] |
| 100 to 500 | – | CC(=O)O[C@H](C)OC(=O)c1cc2ccc(CN)nc2n1Cc1cc(NS(=O)(=O)Cc2ccccc2)cc2ccccc12 (racemic) [Compound 89, 1-[6-(aminomethyl)-1-{[3-(phenylmethanesul-fonamido)naphthalen-1-yl]methyl}-1H-pyrrolo-[2,3-b]pyridine-2-carbon-yloxy]ethyl acetate] |
| – | 500 to 3000 | CC(C)[C@H]1CCCN1C(=O)Nc1cc(Cn2c(C(=O)O)cc3ccc(CN)nc32)c2ccccc2c1 [Compound 299, 6-(aminomethyl)-1-[(3-{[(2R)-2-(propan-2-yl)-pyrrolidine-1-carbonyl]-amino}naphthalen-1-yl)-methyl]-1H-pyrrolo[2,3-b]pyridine-2-carboxylic acid] |
| ≤ 100 | – | NCc1ccc2cc(C(N)=O)n(Cc3cc(NS(=O)(=O)Cc4ccccc4)cc4ccccc34)c2n1 [Compound 57, 6-(aminomethyl)-1-{[3-(phenylmethanesulfon-amido)naphthalen-1-yl]-methyl}-1H-pyrrolo[2,3-b]pyridine-2-carboxamide] |
| – | 100 to 500 | NCc1ccc2cc(CO)n(Cc3cc(NS(=O)(=O)CC4CCNCC4)cc4ccccc34)c2n1 [Compound 362] |
| ≤ 100 | – | CN1CCC(CCNC(=O)c2cc3ccc(CN)nc3n2Cc2cc(NS(=O)(=O)Cc3ccsc3)cc3ccccc23)CC1 [Compound 162, 6-(aminomethyl)-N-[2-(1-methylpiperidin-4-yl)-ethyl]-1-({3-[(thiophen-3-yl)methanesulfon-amido]naphthalen-1-yl}-methyl)-1H-pyrrolo[2,3-b]pyridine-2-carboxamide] |
| – | 100 to 500 | Cc1cccc(C)c1CS(=O)(=O)Nc1cc(Cn2c(C(=O)OCCN3CCOCC3)cc3ccc(CN)nc32)c2ccccc2c1 [Compound 199, 2-(morpholin-4-yl)ethyl 6-(aminomethyl)-1-({3-[(2,6-dimethylphenyl)-methanesulfonamido]-naphthalen-1-yl}meth-yl)-1H-pyrrolo[2,3-b]-pyridine-2-carboxylate] |
| 100 to 500 | – | NCc1ccc2cc(C(=O)OCCC3CCOCC3)n(Cc3cc(NS(=O)(=O)Cc4ccccc4)cc4ccccc34)c2n1 [Compound 102, 2-(oxan-4-yl)ethyl 6-(aminomethyl)-1-{[3-(phenylmethanesulfon-amido)naphthalen-1-yl]-methyl}-1H-pyrrolo[2,3-b]pyridine-2-carboxylate] |
| – | 100 to 500 | NCc1ccc2cc(C(=O)O)n(Cc3cc(NS(=O)(=O)Cc4ccco4)cc4ccccc34)c2n1 [Compound 236, 6-(aminomethyl)-1-({3-[(furan-2-yl)methane-sulfonamido]naphthalen-1-yl}methyl)-1H-pyr-rolo[2,3-b]pyridine-2-carboxylic acid] |
| – | 100 to 500 | CNC(=O)c1cc2ccc(CN)nc2n1Cc1cc(NS(=O)(=O)CC2CCNCC2)cc2ccccc12 [Compound 215, 6-(aminomethyl)-N-methyl-1-({3-[(piperi-din-4-yl)methanesulfon-amido]naphthalen-1-yl}-methyl)-1H-pyrrolo[2,3-b]pyridine-2-carboxamide] |
